Measurements: ChEMBL document CHEMBL4819072, “Radioligand and computational insight in structure - Activity relationship of saccharin derivatives being ipsapirone and revospirone analogues” (Bioorg Med Chem Lett, 2021)

Legend:
[1] = biological target: T1, 5-hydroxytryptamine receptor 1A (Homo sapiens, UniProt P08908); test: Displacement of [3H]-[…] from human 5-HT1AR expressed in human HEK293 cells; type: cell-based
T1 sequence (P08908 whole entry): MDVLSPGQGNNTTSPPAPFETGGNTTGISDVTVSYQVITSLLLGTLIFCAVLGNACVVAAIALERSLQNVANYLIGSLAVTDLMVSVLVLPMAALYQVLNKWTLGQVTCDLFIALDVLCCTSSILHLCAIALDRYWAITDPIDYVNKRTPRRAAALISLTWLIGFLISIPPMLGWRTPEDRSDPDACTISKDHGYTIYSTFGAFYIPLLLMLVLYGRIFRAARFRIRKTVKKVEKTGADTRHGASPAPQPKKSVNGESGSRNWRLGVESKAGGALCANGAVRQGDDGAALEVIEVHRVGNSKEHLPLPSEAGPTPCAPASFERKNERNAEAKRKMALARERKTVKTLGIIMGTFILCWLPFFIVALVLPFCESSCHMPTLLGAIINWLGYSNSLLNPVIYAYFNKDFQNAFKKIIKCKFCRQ

[2] = biological target: T2, Adrenergic receptor alpha-1 (Homo sapiens, UniProt P35348+P25100+P35368); test: Binding affinity to human adrenergic receptor alpha1; type: protein assay
T2 sequence (P35348 whole entry): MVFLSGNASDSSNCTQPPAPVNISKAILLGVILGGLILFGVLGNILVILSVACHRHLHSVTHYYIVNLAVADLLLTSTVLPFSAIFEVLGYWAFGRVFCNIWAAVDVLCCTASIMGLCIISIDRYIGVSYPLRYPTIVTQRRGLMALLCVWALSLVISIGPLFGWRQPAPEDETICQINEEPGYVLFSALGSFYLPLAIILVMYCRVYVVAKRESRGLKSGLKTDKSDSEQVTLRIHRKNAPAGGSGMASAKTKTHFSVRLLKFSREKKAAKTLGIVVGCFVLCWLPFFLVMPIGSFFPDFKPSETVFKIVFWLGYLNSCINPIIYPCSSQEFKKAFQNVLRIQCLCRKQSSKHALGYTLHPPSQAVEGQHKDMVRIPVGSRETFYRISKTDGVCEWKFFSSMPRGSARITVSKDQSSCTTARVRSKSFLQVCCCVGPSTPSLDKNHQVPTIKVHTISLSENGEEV
T2 sequence (P25100 whole entry): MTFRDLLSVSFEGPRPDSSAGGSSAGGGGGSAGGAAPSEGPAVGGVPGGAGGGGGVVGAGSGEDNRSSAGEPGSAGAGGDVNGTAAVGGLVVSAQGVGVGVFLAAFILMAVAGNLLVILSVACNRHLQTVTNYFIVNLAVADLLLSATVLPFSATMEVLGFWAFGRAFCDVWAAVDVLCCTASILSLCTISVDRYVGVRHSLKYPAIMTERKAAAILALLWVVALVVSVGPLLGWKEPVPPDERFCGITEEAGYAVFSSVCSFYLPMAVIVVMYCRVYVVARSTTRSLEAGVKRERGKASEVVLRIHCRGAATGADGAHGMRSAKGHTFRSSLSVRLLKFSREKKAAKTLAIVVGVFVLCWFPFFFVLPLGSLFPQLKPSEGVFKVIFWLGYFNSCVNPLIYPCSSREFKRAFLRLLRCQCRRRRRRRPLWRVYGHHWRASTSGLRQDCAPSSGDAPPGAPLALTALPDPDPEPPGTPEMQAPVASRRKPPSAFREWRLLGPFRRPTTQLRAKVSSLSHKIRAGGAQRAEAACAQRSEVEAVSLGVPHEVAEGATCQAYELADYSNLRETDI
T2 sequence (P35368 whole entry): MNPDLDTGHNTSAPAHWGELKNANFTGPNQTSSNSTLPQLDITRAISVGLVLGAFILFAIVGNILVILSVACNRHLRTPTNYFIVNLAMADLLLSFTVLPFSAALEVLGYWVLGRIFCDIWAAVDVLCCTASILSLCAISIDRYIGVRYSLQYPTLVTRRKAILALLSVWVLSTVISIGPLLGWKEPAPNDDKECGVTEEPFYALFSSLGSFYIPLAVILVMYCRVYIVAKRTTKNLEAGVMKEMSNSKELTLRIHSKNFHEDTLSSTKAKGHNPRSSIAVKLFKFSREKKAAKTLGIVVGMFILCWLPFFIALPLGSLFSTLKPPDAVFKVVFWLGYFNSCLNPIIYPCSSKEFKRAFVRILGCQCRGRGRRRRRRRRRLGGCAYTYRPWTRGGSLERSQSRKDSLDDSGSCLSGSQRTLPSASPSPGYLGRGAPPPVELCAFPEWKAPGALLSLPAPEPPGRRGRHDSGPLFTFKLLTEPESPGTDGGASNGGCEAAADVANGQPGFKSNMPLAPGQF

[3] = biological target: T3, D(4) dopamine receptor (Homo sapiens, UniProt P21917); test: Binding affinity to human D4R
T3 sequence (P21917 whole entry): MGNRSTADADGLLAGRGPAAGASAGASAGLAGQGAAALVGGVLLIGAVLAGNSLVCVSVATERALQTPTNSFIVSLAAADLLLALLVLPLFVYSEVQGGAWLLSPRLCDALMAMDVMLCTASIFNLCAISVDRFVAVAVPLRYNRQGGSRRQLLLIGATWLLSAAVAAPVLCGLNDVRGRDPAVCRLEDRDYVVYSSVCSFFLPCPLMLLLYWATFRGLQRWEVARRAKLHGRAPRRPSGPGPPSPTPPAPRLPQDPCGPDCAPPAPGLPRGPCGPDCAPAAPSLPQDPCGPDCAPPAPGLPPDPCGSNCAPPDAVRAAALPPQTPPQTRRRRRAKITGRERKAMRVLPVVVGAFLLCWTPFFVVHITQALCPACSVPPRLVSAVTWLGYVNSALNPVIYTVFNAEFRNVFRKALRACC

[4] = biological target: 5-hydroxytryptamine receptor 2A (Homo sapiens, UniProt P28223); test: Displacement of [3H]-ketanserin from human 5-HT2AR expressed in CHO cells; type: cell-based
Chain of 5-hydroxytryptamine receptor 2A (P28223 whole entry): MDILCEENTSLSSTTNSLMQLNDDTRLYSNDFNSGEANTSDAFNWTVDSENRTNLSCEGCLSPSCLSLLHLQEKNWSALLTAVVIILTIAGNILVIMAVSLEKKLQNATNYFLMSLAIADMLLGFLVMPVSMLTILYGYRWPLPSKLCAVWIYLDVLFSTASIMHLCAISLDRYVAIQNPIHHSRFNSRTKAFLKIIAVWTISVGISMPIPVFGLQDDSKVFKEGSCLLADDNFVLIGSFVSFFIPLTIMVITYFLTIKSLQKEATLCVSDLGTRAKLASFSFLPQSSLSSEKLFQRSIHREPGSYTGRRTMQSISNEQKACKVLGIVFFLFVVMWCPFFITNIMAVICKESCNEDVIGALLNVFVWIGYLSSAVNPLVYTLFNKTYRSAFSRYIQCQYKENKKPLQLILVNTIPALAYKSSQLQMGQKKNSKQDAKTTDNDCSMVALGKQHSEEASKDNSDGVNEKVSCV

[5] = biological target: T4, 5-hydroxytryptamine receptor 2C (Homo sapiens, UniProt P28335); test: Binding affinity to human 5-HT2C
T4 sequence (P28335 whole entry): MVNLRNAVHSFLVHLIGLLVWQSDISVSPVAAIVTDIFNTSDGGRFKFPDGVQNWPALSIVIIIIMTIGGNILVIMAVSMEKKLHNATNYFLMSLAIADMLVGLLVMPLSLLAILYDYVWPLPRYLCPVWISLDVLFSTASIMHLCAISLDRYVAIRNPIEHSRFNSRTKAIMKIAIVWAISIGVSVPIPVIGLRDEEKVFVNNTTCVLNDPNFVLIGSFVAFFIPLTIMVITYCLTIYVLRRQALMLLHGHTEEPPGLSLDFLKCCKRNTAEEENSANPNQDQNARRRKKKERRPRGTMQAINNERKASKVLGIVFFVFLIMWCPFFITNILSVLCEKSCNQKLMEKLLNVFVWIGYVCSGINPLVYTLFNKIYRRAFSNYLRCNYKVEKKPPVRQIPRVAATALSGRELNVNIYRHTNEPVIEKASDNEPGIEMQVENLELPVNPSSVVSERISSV

[6] = biological target: D(1A) dopamine receptor (Homo sapiens, UniProt P21728); test: Binding affinity to human D1R
Chain of D(1A) dopamine receptor (P21728 whole entry): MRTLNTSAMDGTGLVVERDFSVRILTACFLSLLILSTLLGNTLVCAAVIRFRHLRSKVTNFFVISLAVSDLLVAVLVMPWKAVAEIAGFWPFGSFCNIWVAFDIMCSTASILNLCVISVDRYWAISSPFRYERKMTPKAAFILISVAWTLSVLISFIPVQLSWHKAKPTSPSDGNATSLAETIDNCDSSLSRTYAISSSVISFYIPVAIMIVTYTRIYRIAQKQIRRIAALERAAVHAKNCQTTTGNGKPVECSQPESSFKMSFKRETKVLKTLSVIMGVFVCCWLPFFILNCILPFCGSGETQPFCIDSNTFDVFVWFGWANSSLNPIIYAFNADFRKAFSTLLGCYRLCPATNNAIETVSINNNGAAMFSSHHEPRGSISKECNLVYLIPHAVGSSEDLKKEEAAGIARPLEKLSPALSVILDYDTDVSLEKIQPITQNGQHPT

[7] = biological target: T5, 5-hydroxytryptamine receptor 1A (Rattus norvegicus, UniProt P19327); test: Displacement of [3H]-[…] from Wistar rat frontal region 5-HT1AR incubated for 30 mins; type: tissue-based, Frontal lobe
T5 sequence (P19327 whole entry): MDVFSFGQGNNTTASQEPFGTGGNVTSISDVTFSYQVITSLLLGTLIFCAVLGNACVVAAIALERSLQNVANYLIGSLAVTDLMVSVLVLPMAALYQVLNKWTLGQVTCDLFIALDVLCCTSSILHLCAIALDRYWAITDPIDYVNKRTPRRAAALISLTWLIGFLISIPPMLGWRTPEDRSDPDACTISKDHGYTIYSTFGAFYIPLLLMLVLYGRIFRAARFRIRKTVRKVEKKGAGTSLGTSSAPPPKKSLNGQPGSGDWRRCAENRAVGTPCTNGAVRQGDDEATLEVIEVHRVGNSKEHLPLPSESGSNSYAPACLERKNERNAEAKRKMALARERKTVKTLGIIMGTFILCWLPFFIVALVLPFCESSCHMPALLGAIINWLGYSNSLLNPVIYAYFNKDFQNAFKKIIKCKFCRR

[8] = biological target: D(2) dopamine receptor (Rattus norvegicus, UniProt P61169); test: Displacement of [3H]-spiperone from DRD2 in rat striatum incubated for 45 mins by liquid scintillation counting; type: tissue-based
Chain of D(2) dopamine receptor (P61169 whole entry): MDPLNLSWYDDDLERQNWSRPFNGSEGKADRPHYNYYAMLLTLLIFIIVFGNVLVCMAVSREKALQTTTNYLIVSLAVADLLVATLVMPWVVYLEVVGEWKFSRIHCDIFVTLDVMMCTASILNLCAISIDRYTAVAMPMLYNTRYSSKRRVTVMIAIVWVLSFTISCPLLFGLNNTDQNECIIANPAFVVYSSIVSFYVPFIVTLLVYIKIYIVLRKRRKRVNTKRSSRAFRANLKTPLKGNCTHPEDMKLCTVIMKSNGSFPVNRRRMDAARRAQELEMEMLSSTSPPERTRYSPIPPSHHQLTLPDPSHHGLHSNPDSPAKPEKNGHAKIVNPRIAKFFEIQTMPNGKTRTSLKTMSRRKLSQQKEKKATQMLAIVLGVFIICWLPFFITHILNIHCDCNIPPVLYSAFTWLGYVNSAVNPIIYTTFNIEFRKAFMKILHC

Ki [1]: 0.1 µM | Ki [2]: 1.5 µM | Ki [3]: > 5 µM | Ki [4]: 2.25 µM | Ki [5]: > 5 µM | Ki [6]: > 5 µM | Ki [7]: 0.1 µM | Ki [8]: 2.25 µM
Compound: O=C1c2ccccc2S(=O)(=O)N1CCCCN1CCN(c2cccc(C(F)(F)F)c2)CC1
